# Data reported in the METLIN SMRT retention time set (Domingo-Almenara et al. 2019).
# Test: gradient 5% acetonitrile 3 min, to 50% in 2 min, to 85% in 15 min, held 3 min, 100 µL/min
# Settings: column: Zorbax Extend-C18 2.1 x 50 mm; eluents: water / acetonitrile, 0.1% formic acid
# Method in brief: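 Using water and acetonitrile that each contained 0.1% formic acid, mixtures of ~100 pure standards were separated at 100 μL/min on a Zorbax Extend-C18 column (2.1 × 50 mm, 1.8 μm). The HPLC fed a quadrupole time-of-flight mass spectrometer working in positive and negative ionization mode, with dead and dwell volumes of 40 μL and 900 μL. Data were acquired over 3 months. Retention time was read from computationally picked adduct peaks after manual inspection of each.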
row,SMILES,RP-LC retention time [s]
1,COc1cc(OC)cc(C(=O)N2CCC3(C2)C(=O)N(C)c2ccccc23)c1 (centres undefined),770
2,O=[N+]([O-])c1c(NCCO)cc(N2CCN(c3ccccn3)CC2)c2nonc12,579
3,CCOc1ccc(-c2noc(Cc3nnc(-c4ccc(C)c(F)c4)o3)n2)cc1,1140
4,c1cc(OCc2ccc(CC3CCN(C4CCOCC4)CC3)cc2)ccn1,548
5,Cn1nc(-c2nnc(-c3ccccc3Cl)o2)c2c1CCN(C(=O)Nc1ccccc1)C2,849
6,O=C(O)CC1CCCN(c2cnn(CC3CC3)c(=O)c2)C1 (centres undefined),657
7,O=C(C1=CN(c2ccc(F)c(F)c2)c2ccccc2S1(=O)=O)N1CCCCC1,1040
8,O=C(c1ccsc1)N1CCn2c(nnc2-c2ccccc2)C1,611
9,O=C(Cn1ccn2nc(-c3ccc(F)cc3)c(CO)c2c1=O)Nc1ccc(Cl)cc1,880
10,CO[C@H]1CN(C2CCN(S(=O)(=O)c3cccc4cccnc34)CC2)[C@H]1c1cccnc1,605
11,COc1ccc(CN2C(=O)C3(CCOCC3)CC2c2nnnn2C(C)(C)C)c(OC)c1 (centres undefined),734
12,CC(C)c1nccn1C1CN(C(=O)C(C)c2ccccc2)C1 (centres undefined),612
13,CC(NC(=O)C1CCN(Cc2cn(C)c3ccc(Cl)cc23)CC1)c1ccccc1 (centres undefined),727
14,COc1ccccc1N1CCN(C(=O)C2CCCN(c3ncnc4c3nc3n4CCCCC3)C2)CC1 (centres undefined),766
15,CN(C)c1ccc(CNC(=O)CN2c3ccccc3NC3=C(C(=O)CCC3)C2c2ccco2)cc1 (centres undefined),628
16,Cc1cc(C)nc(N2CCN(c3c4c(nc5c(-c6ccccc6)c(C)nn35)CCC4)CC2)n1,1210
17,CC(=O)Oc1ccc(C(=O)NCCc2c[nH]c3ccc(Cl)cc23)cc1,853
18,O=C(c1cc(S(=O)(=O)N2CCCC(C(=O)N3CCOCC3)C2)c[nH]1)N1CCCCCC1 (centres undefined),696
19,CCN(CC)CCNC(=O)C1c2ccccc2Oc2ccccc21,655
20,Cc1nc(-c2cc(S(=O)(=O)NCCCN3CCCC(C)C3)c(C)s2)sc1C (centres undefined),704
21,Cc1cc(=O)n(CC(=O)Nc2cc(F)ccc2F)c(N2CCCCC2)n1,708
22,CCN1C(=O)c2cc(C(=O)N3CCN(c4ncccn4)CC3)nn2CC1(C)C(=O)NC1CCCC1 (centres undefined),691

row,SMILES,RP-LC retention time [s]
1,O=C(NCc1ccccc1Cl)c1cn2c(n1)COCC2,665
2,CN(C)c1nc2ncn3c(=O)n(CC(=O)NC4CCCC4)nc3c2s1,647
3,C[C@H]1CC[C@@H]2N(C1)C[C@H]1[C@@H]3C[C@H]4[C@@H](CC(=O)[C@H]5C[C@@H](O)CC[C@@]54C)[C@@H]3CC[C@H]1[C@]2(C)O,601
4,CS(=O)(=O)N1CCc2cc(C(=O)N3CCC(C(N)=O)CC3)ccc21,583
5,Cc1nc(-c2ccc(F)cc2)sc1C(=O)N[C@@H](Cc1c[nH]c2ccccc12)C(=O)O,838
6,CC(C)(C)NC(=O)C1CCN(S(C)(=O)=O)c2cc(Cl)ccc2O1 (centres undefined),898
7,CCn1c(=O)c2ccn(CC(=O)NCc3ccc(C)cc3)c2n(CC)c1=O,706
8,CC(=O)N1CCc2cc(N3CC(C(=O)NCc4ccc(F)cc4)CC3=O)ccc21 (centres undefined),740
9,Cc1c(Cl)cccc1NC(=O)CCCn1cccc1,868
10,CCCCC(=O)N1CCc2c(c(C(=O)N3CCCC(C(=O)Nc4ccccc4C)C3)nn2C)C1 (centres undefined),797
11,O=C(CSc1ccc(Cl)cc1)Nc1nnc(-c2cccc([N+](=O)[O-])c2)s1,968
12,CC(CC(=O)N1CCN(c2ccccc2)CC1)S(=O)(=O)c1ccc2c(c1)CCN2C(=O)C1CC1 (centres undefined),866
13,CCN(CC)CCCNC(=O)C1CCCN(c2ncc(-c3ccccc3)cn2)C1 (centres undefined),673
14,Cc1ccc2c(c1)C1CC(C)(O2)N(c2cccc(C(=O)N3CCN(c4ccccn4)CC3)c2)C(=O)N1 (centres undefined),625
15,O=C(CCc1nc2sc3c(c2c(=O)[nH]1)CCCCC3)N1CCN(c2ccccn2)CC1,603
16,Cc1cccc(CNC(=O)c2ncn3c2C(=O)N(C2CC2)C(C)(C(=O)NC2CCCC2)C3)c1 (centres undefined),784
17,Cc1cc(C)cc(-c2nc(-c3cccc(-c4ccn[nH]4)c3)no2)c1,999
18,Nc1c(Cl)ncnc1NCCO,557
19,Cc1ccc(CNC(=O)CN2C(=O)CCCc3cc(S(=O)(=O)N4CCCC4)ccc32)cc1,824
20,O=c1c2cc(-c3ccc(F)cc3)nn2ccn1Cc1noc(CN2CCCCCC2)n1,683
21,CCc1noc(NC(C)=O)c1-c1ccc(OC)c(S(=O)(=O)N2CCCc3ccccc32)c1,879

# More lines, now with the values ahead:
row,RP-LC retention time [s],SMILES
1,771,Cc1csc(-c2ccc(N3CCN(C(=O)c4cccc(C#N)c4)CC3)nc2)n1
2,640,COc1ccc(NC(=O)c2cc(NC(=O)C3CCC3)cc3nc(C)ccc23)cc1OC
3,1290,Cc1cccc(Sc2nccnc2N2CCCC(C(=O)Nc3ccc(Br)cc3)C2)c1 (centres undefined)
4,1030,CC1CCCN(c2nn(CC(=O)Nc3ccc4c(c3)OCCO4)c(=O)c3ccccc23)C1 (centres undefined)
5,1020,CNC(=O)c1c(NC(=O)COc2ccccc2)sc2c1CCC2
6,735,CS(=O)(=O)c1ccccc1C(=O)Nc1nnc(-c2cc(Cl)sc2Cl)o1
7,870,O=C(Nc1ccc2c(c1)OCCO2)c1noc2c1CCCC2
8,1260,CCOC(=O)C1CCC(CNC(=O)Nc2ccc(-c3nc(-c4cc(C)ccc4C)co3)cc2)CC1 (centres undefined)
9,596,COC(=O)c1ccccc1NC(=O)N1CCc2nc[nH]c2C1
10,683,O=C(Nc1cnc(N2CCN(CCOc3ccc(Cl)cc3)CC2)c(C(=O)O)c1)c1cccs1
11,914,O=C(Nc1ccc([N+](=O)[O-])cc1O)Nc1ccccc1Br
12,800,CCCOc1ccc(C(=O)Nc2nnc(C3CC(=O)N(c4ccccc4)C3)o2)cc1 (centres undefined)
13,763,Cc1ccc(N(C)C(=O)c2cc(C)n3nc(-c4ccccn4)cc3n2)cc1
14,640,Cc1n[nH]c(C)c1S(=O)(=O)Nc1ccc(CC(=O)NCc2cccs2)cc1
15,857,CCNC(=O)N1CCc2c([nH]c3ccccc23)C12C(=O)N(C)c1ccc(Br)cc12 (centres undefined)
16,562,CC(C)S(=O)(=O)c1ccc(CC(=O)N2CC(c3nc4ccccc4[nH]3)C2)cc1
17,571,Cc1ccc2c(C(=O)N3CCN(Cc4ccccc4)CC3)cc(NC(=O)C(C)C)cc2n1
18,906,O=C(Nc1cccc(Cl)c1)c1cn(-c2cc(N3CCCC3)ncn2)cn1
19,643,O=C1NC(C(=O)Nc2ccc3c(c2)OCCO3)Cn2cccc21 (centres undefined)
20,1150,COc1cccc(-c2nc(-c3ccc4nnn(C(C)C)c4c3)no2)c1
21,666,CC(C)OC(=O)Nc1ccc2nc(-c3cscn3)[nH]c2c1
